Results as given in patent US20110038856A1, “METHODS OF TREATING NEOPLASTIC, AUTOIMMUNE AND INFLAMMATORY DISEASES” (Seattle Genetics, Inc., priority 2006, published 2011).
Blank lines part the entries; values can stand above or below the compound they belong to.

Assays:
HEL 92.1.7 cells = test: Complement-dependent cytotoxicity (CDC) on MDR+ CD33-positive AML cell line; assay type: cell-based, human; details: HEL 92.1.7 cells preincubated with drug for two hours prior to anti-CD33 Ab; FIG. 4
Protocol: The purpose of this study was to determine whether the cytotoxic effects of an anti-CD33 antibody (HuM195) on AML cells could be enhanced by combination treatment with chemotherapeutic drugs. An MDR^+, CD33-positive AML cell line (HEL 92.1.7) was either untreated or preincubated with the indicated concentrations of thalidomide or 5-azacytidine for two hours prior to exposure to the anti-CD33 Ab. Cytotoxic activity was measured using a complement-dependent cytotoxicity (CDC) activity.

HL-60 cells = test: Mouse AML model, HL-60 cells injected intravenously; assay type: in vivo, mice
Protocol: Mice were implanted with an AML cell line, HL-60, as follows: 5 million HL-60 cells were injected intravenously. The mice were treated with lintuzumab (10 mg/kg, q4d×4, ip), cytarabine (1 mg/kg, 5 mg/kg or 25 mg/kg, q1d×10, or 50 mg/kg or 100 mg/kg, q2d×5, ip) or lintuzumab with cytarabine (dosed as described previously). Treatment began on day one.
To confirm the data of the in vitro study, mice were implanted with an AML cell line, HL-60, as follows: 5 million HL-60 cells were injected intravenously. […] Treatment began on day one.

target cells = test: ADCC activity, standard 51Cr release assay with NK cells; assay type: cell-based; details: NK cells pre-treated for 2 to 3 h with drug prior to addition to target cells; FIG. 23
Protocol: Viable NK cells were pre-treated for 2 to 3 h with lenalidomide or thalidomide (as described in FIG. 23) prior to addition to target cells.

CD33 [1] = target: T1, CD33 (Homo sapiens, UniProt P20138); test: SGN-33 signaling in HL-60 cells, primary human monocytes and macrophages (CD33 immunoprecipitation, Western blot); assay type: cell-based; design: endogenous in cells; host or cells: HL-60 (ATCC); primary human CD14+ monocytes (Cambrex); macrophages derived from human PBMCs; details: HL-60 and monocytes; 30 minutes; FIG. 16
T1 sequence (P20138 18-364): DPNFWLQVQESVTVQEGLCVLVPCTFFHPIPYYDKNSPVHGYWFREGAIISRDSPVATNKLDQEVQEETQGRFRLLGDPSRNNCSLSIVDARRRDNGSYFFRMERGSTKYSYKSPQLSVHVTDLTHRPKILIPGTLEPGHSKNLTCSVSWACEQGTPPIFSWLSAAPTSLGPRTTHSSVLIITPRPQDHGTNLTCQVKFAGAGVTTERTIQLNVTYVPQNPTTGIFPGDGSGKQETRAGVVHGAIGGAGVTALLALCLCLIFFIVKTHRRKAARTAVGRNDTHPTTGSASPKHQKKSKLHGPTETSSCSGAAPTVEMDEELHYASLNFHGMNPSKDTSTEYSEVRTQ
Protocol: Deglycosylation was confirmed by CE-SDS. […] Cell lysates were prepared and CD33 immunoprecipitated using an anti-CD33 rabbit polyclonal antibody (Santa Cruz Biotechnology, Santa Cruz, Calif.) prior to SDS PAGE gel electrophoresis. Western blot analyses of these samples were performed using the 4G10 phosphotyrosine antibody (Upstate Biotechnology, Temucula, Calif.), anti-CD33 antibody (NovoCastra, Norwell, Mass.), and anti-SHP-1 antibody (Calbiochem, San Diego, Calif.). Control lysate for SHP-1 was prepared from a B cell lymphoma cell line.

CD33 [2] = target: T1, CD33; test: Binding of deglycosylated SGN-33 to CD33 by ELISA; details: data not shown
[3] = test system: primary human macrophages; test: Macrophage migration in response to chemoattractants (CytoSelect Cell Migration Assay); assay type: cell-based; details: 10% human serum or 20% conditioned media from RPMI 8226 cells; p<0.05; FIG. 21
Protocol: (§1) The migration of macrophages in response to challenge with plating media containing 10% human serum, 20% conditioned tumor cell media, or 50 ng/ml TGF-β, VEGF, TNF-α, or IFN-γ was evaluated using the CytoSelect Cell Migration Assay (Cell Biolabs, San Diego, Calif.). […] The study was stopped 18 hours later and migration was evaluated after dissociation of the cells from the membrane followed by detection with Cyquant GR dye.
as §1, with “serum or” for “serum,”, “media” for “media, or 50 ng/ml TGF-β, VEGF, TNF-α, or IFN-γ”, “studies were” for “study was”, “h” for “hours”

[4] = Effector function (ADCC or CDC activity) of deglycosylated antibody; assay type: cell-based; details: data not shown; unlike the intact antibody

Compound: Nc1ncn([C@@H]2O[C@H](CO)[C@@H](O)[C@H]2O)c(=O)n1 [5-azacytidine]
- sensitivity of MDR+ AML cells to HuM195-mediated CDC activity (HEL 92.1.7 cells): enhanced the sensitivity

Compound: Nc1ccn([C@@H]2O[C@H](CO)[C@@H](O)[C@@H]2O)c(=O)n1 [cytarabine, reference compound]
- percent survival rates compared to untreated controls (HL-60 cells; low doses of cytarabine alone, ip, FIG. 22): increasing percent survival rates

Compound: Nc1cccc2c1CN(C1CCC(=O)NC1=O)C2=O (stereo not shown) [lenalidomide, reference compound]
- day by which mice were removed from study due to tumor progression (HL-60 cells; lenalidomide 25 mg/kg, qd×3, ip alone, control mice about day 60, FIG. 24): ~90 days
- SGN-33 mediated ADCC (target cells): enhance SGN-33 mediated ADCC

Compound: O=C1CCC(N2C(=O)c3ccccc3C2=O)C(=O)N1 (stereo not shown) [thalidomide]
- sensitivity of MDR+ AML cells to HuM195-mediated CDC activity (HEL 92.1.7 cells): enhanced the sensitivity
- SGN-33 mediated ADCC (target cells): enhance SGN-33 mediated ADCC

- recruitment of SHP-1 to the CD33 complex (CD33 [1]): resulted in recruitment of SHP-1
- binding to CD33 (CD33 [2]): confirmed
Compound: deglycosylated SGN-33: SGN-33 treated with PN-glycosidase F; does not interact with Fc receptors
- macrophage migration [3]: significantly reduced
- effector function, including ADCC or CDC activity [4]: did not mediate effector function
